Data reported in DBAASP.
In brackets after ≈: the same amount, converted by molar mass. Values belong to the compound of their own block, whether it stands above or below them.

How the values were obtained:
Experiment in all cases: ≥ marks a high value that may be exact or a test limit, other limits are often not marked, values filed in µg/mL are converted to µM
[1] = system: Candida albicans NCTC 3179
[2] = system: Escherichia coli ATCC 25922
[3] = system: Staphylococcus aureus ATCC 25923
[4] = system: Escherichia coli BL21
[5] = system: Pseudomonas aeruginosa PAO1
[6] = system: Pseudomonas syringae
[7] = system: Streptococcus pyogenes GAS M1T1
[8] = system: Xanthomonas axonopodis pv. phaseoli ATCC 9563
[9] = system: Bacillus subtilis CMCC 63501
[10] = system: Enterococcus faecalis ATCC 29212
[11] = system: Escherichia coli UB1005
[12] = system: Pseudomonas aeruginosa ATCC 27853
[13] = system: Salmonella enterica subsp. enterica serovar Pullorum C79-13
[14] = system: Salmonella typhimurium ATCC 7731
[15] = system: Staphylococcus aureus ATCC 29213
[16] = system: Staphylococcus aureus ATCC 43300
[17] = system: Staphylococcus epidermidis ATCC 12228
[18] = system: Escherichia coli K88
[19] = system: Escherichia coli O157:H7 CICC 21530
[20] = system: Lacticaseibacillus rhamnosus 1.0911
[21] = system: Lacticaseibacillus rhamnosus 1.0936
[22] = system: Lacticaseibacillus rhamnosus 1.9021
[23] = system: Lacticaseibacillus rhamnosus 8014
[24] = system: Salmonella enterica subsp. enterica serovar Choleraesuis CVCC 503
[25] = system: Salmonella enterica subsp. enterica serovar Typhimurium ATCC 14028
[26] = system: Streptococcus agalactiae BNCC 185941
[27] = system: Candida albicans
[28] = system: Candida krusei CGMCC 2.1857
[29] = system: Candida parapsilosis CGMCC 2.3989
[30] = system: Candida tropicalis CGMCC 2.1975
[31] = system: Escherichia coli 1005
[32] = system: Salmonella enterica subsp. enterica serovar Pullorum ATCC 7913

Compound: CC[C@H](C)[C@H](NC(=O)[C@H](CCCCN)NC(=O)[C@H](CC(N)=O)NC(=O)[C@H](CCCCN)NC(=O)[C@H](CC(C)C)NC(=O)[C@H](Cc1ccc(O)cc1)NC(=O)[C@H](CCC(N)=O)NC(=O)[C@H](CCCN=C(N)N)NC(=O)[C@@H](NC(=O)[C@@H](NC(=O)[C@H](CCCCN)NC(=O)[C@H](CCCCN)NC(=O)[C@H](Cc1c[nH]c2ccccc12)NC(=O)[C@H](C)N)[C@@H](C)O)[C@@H](C)CC)C(=O)N[C@@H](CCCCN)C(=O)N[C@@H](CCCCN)C(=O)N[C@@H](CCCCN)C(=O)N[C@@H](Cc1c[nH]c2ccccc12)C(=O)N[C@@H](CCCN=C(N)N)C(=O)N[C@@H](CCCCN)C(=O)N[C@@H](C)C(=O)N[C@H](C(=O)N[C@H](C(=O)N[C@@H](C)C(=O)N[C@@H](Cc1c[nH]c2ccccc12)C(=O)O)[C@@H](C)CC)C(C)C [AWKKTIRQYLKNKIKKKWRKAVIAW]
MIC [4]: 4 µM (≈ 12.7 µg/mL) | MIC [6]: 8 µM (≈ 25.5 µg/mL) | MIC [7]: 8 µM (≈ 25.5 µg/mL) | MIC [8]: 1 µM (≈ 3.19 µg/mL)

Compound: CC(C)C[C@H](NC(=O)[C@H](Cc1c[nH]c2ccccc12)NC(=O)[C@H](CC(C)C)NC(=O)[C@@H](NC(=O)[C@H](CC(C)C)NC(=O)[C@H](CCCCN)NC(=O)[C@@H](N)CCCCN)[C@@H](C)O)C(=O)N[C@H](C(=O)N[C@@H](CC(C)C)C(=O)N[C@@H](CCCCN)C(=O)N[C@@H](CCCCN)C(N)=O)[C@@H](C)O [KKLTLWLTLKK]
MIC [18]: 2 µM (≈ 2.74 µg/mL) | MIC [19]: 8 µM (≈ 11 µg/mL) | MIC [20]: 16 µM (≈ 21.9 µg/mL) | MIC [21]: ≥ 32 µM | MIC [22]: ≥ 32 µM | MIC [23]: ≥ 128 µM | MIC [12]: 8 µM (≈ 11 µg/mL) | MIC [5]: 16 µM (≈ 21.9 µg/mL) | MIC [24]: 8 µM (≈ 11 µg/mL) | MIC [13]: 2 µM (≈ 2.74 µg/mL) | MIC [25]: 128 µM (≈ 175 µg/mL) | MIC [15]: 32 µM (≈ 43.9 µg/mL) | MIC [16]: 32 µM (≈ 43.9 µg/mL) | MIC [17]: 32 µM (≈ 43.9 µg/mL) | MIC [26]: ≥ 128 µM

Compound: NC(=O)[C@H](CCCN=C(N)N)NC(=O)[C@H](Cc1ccccc1)NC(=O)[C@H](Cc1ccccc1)NC(=O)[C@H](CCCN=C(N)N)NC(=O)[C@H](CCCN=C(N)N)NC(=O)[C@H](Cc1ccccc1)NC(=O)[C@H](CCCN=C(N)N)NC(=O)[C@H](CCCN=C(N)N)NC(=O)[C@H](Cc1ccccc1)NC(=O)[C@H](Cc1ccccc1)NC(=O)[C@@H](N)CCCN=C(N)N [RFFRRFRRFFR]
MIC [27]: 5.66 µM (≈ 9.56 µg/mL) | MIC [28]: 2 µM (≈ 3.38 µg/mL) | MIC [29]: ≥ 64 µM | MIC [30]: 2 µM (≈ 3.38 µg/mL) | MIC [31]: 8 µM (≈ 13.5 µg/mL) | MIC [32]: 4 µM (≈ 6.76 µg/mL) | MIC [25]: 4 µM (≈ 6.76 µg/mL) | MIC [3]: 4 µM (≈ 6.76 µg/mL) | MIC [15]: 8 µM (≈ 13.5 µg/mL) | MIC [16]: 4 µM (≈ 6.76 µg/mL) | MIC [17]: 4 µM (≈ 6.76 µg/mL)

The next lines start with the values.

MIC [1]: ≥ 95 µM | MIC [2]: 1.71 µM (≈ 4.5 µg/mL) | MIC [3]: 1.71 µM (≈ 4.5 µg/mL)
Compound: CC[C@H](C)[C@H](NC(=O)[C@@H](NC(=O)[C@H](Cc1ccccc1)NC(=O)CNC(=O)[C@@H](NC(=O)[C@H](CC(N)=O)NC(=O)[C@H](C)N)C(C)C)C(C)C)C(=O)N[C@@H](CCC(N)=O)C(=O)N[C@@H](CC(C)C)C(=O)N[C@@H](CCC(N)=O)C(=O)N[C@@H](C)C(=O)N[C@@H](CCCN=C(N)N)C(=O)N[C@@H](CC(C)C)C(=O)N[C@@H](CCCN=C(N)N)C(=O)NCC(=O)N[C@@H](Cc1ccccc1)C(=O)N[C@@H](CC(C)C)C(=O)N[C@H](C(=O)N[C@@H](CCCN=C(N)N)C(=O)N[C@@H](CCC(N)=O)C(=O)N[C@@H](CCCCN)C(=O)N[C@@H](Cc1ccccc1)C(=O)N[C@@H](C)C(=O)O)C(C)C [ANVGFVIQLQARLRGFLVRQKFA]

MIC [4]: 8 µM (≈ 24.5 µg/mL) | MIC [5]: 10 µM (≈ 30.6 µg/mL) | MIC [6]: 8 µM (≈ 24.5 µg/mL) | MIC [7]: 8 µM (≈ 24.5 µg/mL) | MIC [8]: 1 µM (≈ 3.06 µg/mL)
Compound: CC[C@H](C)[C@H](NC(=O)[C@H](CCCCN)NC(=O)[C@H](CC(N)=O)NC(=O)[C@H](CCCCN)NC(=O)[C@H](CC(C)C)NC(=O)[C@H](Cc1ccc(O)cc1)NC(=O)[C@H](CCC(N)=O)NC(=O)[C@H](CCCN=C(N)N)NC(=O)[C@@H](NC(=O)[C@@H](NC(=O)[C@H](CCCCN)NC(=O)[C@H](CCCCN)NC(=O)[C@H](Cc1c[nH]c2ccccc12)NC(=O)[C@H](C)N)[C@@H](C)O)[C@@H](C)CC)C(=O)N[C@@H](CCCCN)C(=O)N[C@@H](CCCCN)C(=O)N[C@@H](CCCCN)C(=O)NCC(=O)N[C@@H](CCCN=C(N)N)C(=O)N[C@@H](CCCCN)C(=O)N[C@@H](C)C(=O)N[C@H](C(=O)N[C@H](C(=O)N[C@@H](C)C(=O)N[C@@H](Cc1c[nH]c2ccccc12)C(=O)O)[C@@H](C)CC)C(C)C [AWKKTIRQYLKNKIKKKGRKAVIAW]

MIC [9]: ≥ 32 µM | MIC [10]: 16 µM (≈ 28.1 µg/mL) | MIC [2]: 16 µM (≈ 28.1 µg/mL) | MIC [11]: 8 µM (≈ 14 µg/mL) | MIC [12]: 16 µM (≈ 28.1 µg/mL) | MIC [13]: 16 µM (≈ 28.1 µg/mL) | MIC [14]: 16 µM (≈ 28.1 µg/mL) | MIC [15]: 8 µM (≈ 14 µg/mL) | MIC [16]: 16 µM (≈ 28.1 µg/mL) | MIC [17]: 16 µM (≈ 28.1 µg/mL)
Compound: CC[C@H](C)[C@H](N)C(=O)N[C@@H](Cc1cnc[nH]1)C(=O)N[C@@H](CCCCN)C(=O)N[C@@H](Cc1ccccc1)C(=O)N[C@@H](Cc1c[nH]c2ccccc12)C(=O)N[C@@H](CCCN=C(N)N)C(=O)N[C@@H](CCCN=C(N)N)C(=O)N[C@@H](Cc1c[nH]c2ccccc12)C(=O)N[C@@H](Cc1ccccc1)C(=O)N[C@@H](CCCCN)C(=O)N[C@@H](Cc1cnc[nH]1)C(=O)N[C@H](C(N)=O)[C@@H](C)CC [IHKFWRRWFKHI]

MIC [1]: 30.3 µM (≈ 84 µg/mL) | MIC [2]: 3.54 µM (≈ 9.8 µg/mL) | MIC [3]: 4.7 µM (≈ 13 µg/mL)
Compound: CC[C@H](C)[C@H](NC(=O)[C@H](CCCCN)NC(=O)[C@@H](NC(=O)[C@@H](NC(=O)[C@H](CO)NC(=O)[C@H](CC(N)=O)NC(=O)[C@@H](NC(=O)[C@H](CC(N)=O)NC(=O)[C@@H](N)CCCCN)C(C)C)[C@@H](C)CC)C(C)C)C(=O)N[C@@H](CCC(N)=O)C(=O)N[C@@H](C)C(=O)N[C@@H](Cc1ccccc1)C(=O)N[C@@H](Cc1ccccc1)C(=O)N[C@@H](CCCN=C(N)N)C(=O)N[C@@H](C)C(=O)N[C@@H](CCCN=C(N)N)C(=O)N[C@@H](CCCCN)C(=O)N[C@@H](C)C(=O)N[C@@H](CCC(N)=O)C(=O)N[C@@H](CC(=O)O)C(=O)N[C@@H](CC(=O)O)C(=O)N[C@@H](Cc1ccc(O)cc1)C(=O)N[C@@H](CCCN=C(N)N)C(=O)O [KNVNSIVKIQAFFRARKAQDDYR]

MIC [27]: 5.66 µM (≈ 8.6 µg/mL) | MIC [28]: 4 µM (≈ 6.08 µg/mL) | MIC [29]: 8 µM (≈ 12.2 µg/mL) | MIC [30]: 2 µM (≈ 3.04 µg/mL) | MIC [31]: 4 µM (≈ 6.08 µg/mL) | MIC [32]: 8 µM (≈ 12.2 µg/mL) | MIC [25]: 8 µM (≈ 12.2 µg/mL) | MIC [3]: 8 µM (≈ 12.2 µg/mL) | MIC [15]: 4 µM (≈ 6.08 µg/mL) | MIC [16]: 8 µM (≈ 12.2 µg/mL) | MIC [17]: 4 µM (≈ 6.08 µg/mL)
Compound: CC(C)C[C@H](NC(=O)[C@H](CC(C)C)NC(=O)[C@H](CCCN=C(N)N)NC(=O)[C@H](CCCN=C(N)N)NC(=O)[C@H](CC(C)C)NC(=O)[C@H](CCCN=C(N)N)NC(=O)[C@H](CCCN=C(N)N)NC(=O)[C@H](CC(C)C)NC(=O)[C@H](CC(C)C)NC(=O)[C@@H](N)CCCN=C(N)N)C(=O)N[C@@H](CCCN=C(N)N)C(N)=O [RLLRRLRRLLR]
